Results as given in patent publication EP0705603A1, “Use of non-toxic cysteine sulfoxide derivatives in the treatment of cancer or for enhancing the T-cell count” (priority 1994, dated 1996).

Assay: Toxicity after intravenous administration to patients
Type: in vivo, patient
Method: Aqueous solutions of t-butyl hydroperoxide are prepared by dissolving 50 ml of a 70% aqueous solution of t-butyl hydroperoxide in 1 litre of normal (0.9%) saline. 15-30 ml of this solution is given intravenously over a period of up to about 15 minutes.
Aqueous solutions of methyl, ethyl, propyl and butyl cysteine sulfoxide are prepared by dissolving 100 gram of the respective sulfoxide in 1 litre of normal (0.9%) saline. 30-60 ml of this solution (delivering an approximate […] dose of the sulfoxide) is given intravenously.
An aqueous solution of L-cystine is prepared by first dissolving 80 grams of N-methyl-D-glucamine in 1 litre of normal (0.9%) saline and the dissolving in 40 g of L-cystine. 50 to 60 ml of the solution (delivering an approximately 2 g dose of cystine) is given intravenously.
An aqueous solution of oxidised glutathione is prepared by dissolving 40 grams in 1 litre of normal (0.9%) saline. 50-60 ml of this solution (delivering an approximately 2 g dose of oxidised glutathione) is given intravenously.
The t-butyl hydroperoxide solution is administered by intravenous infusion over a period of up to about 15 minutes. This is then followed immediately by intravenous infusion of the sulfoxide, optionally with cystine and/or oxidised glutathione solutions, and then (within three minutes) Ultra High Frequency microwave radiation is commenced and is delivered over the next 20 - 30 minutes. 1 or 2 rest intervals of 2 to 3 minutes each are permitted during this application. Three such treatment sessions may be undertaken per day.
No immediate or late changes in blood pressure, renal or liver function, electrolytes or haematology have been seen from the method.

CC[S+]([O-])CC(N)C(=O)O (stereo not drawn) [ethyl cysteine sulfoxide]
symptoms suggestive of any toxicity (human, in vivo, iv): No symptoms suggestive of any toxicity

C[S+]([O-])CC(N)C(=O)O (stereo not drawn) [methyl cysteine sulfoxide]
symptoms suggestive of any toxicity (human, in vivo, iv): No symptoms suggestive of any toxicity

CC(C)(C)OO [t-butyl hydroperoxide]
volume of saline solution of oxidising agent that can safely and effectively be administered (70% t-butyl hydroperoxide in water diluted in normal (0.9%) saline, intravenous, over about 5 minutes): 60 mL
symptoms suggestive of any toxicity (after the intravenous administration): No symptoms suggestive of any toxicity

CCCC[S+]([O-])CC(N)C(=O)O (stereo not drawn) [butyl cysteine sulfoxide]
symptoms suggestive of any toxicity (human, in vivo, iv): No symptoms suggestive of any toxicity

N[C@@H](CSSC[C@H](N)C(=O)O)C(=O)O [L-cystine]
NOAEL (human, in vivo, iv): > 100 mg/kg
symptoms suggestive of any toxicity (human, in vivo, iv): No symptoms suggestive of any toxicity

CCC[S+]([O-])CC(N)C(=O)O (stereo not drawn) [propyl cysteine sulfoxide]
symptoms suggestive of any toxicity (human, in vivo, iv): No symptoms suggestive of any toxicity

C=CC[S+]([O-])CC(N)C(=O)O (stereo not drawn) [allyl cysteine sulfoxide]
symptoms suggestive of any toxicity (human, in vivo, iv): No symptoms suggestive of any toxicity
